This passage reports EC50 results from patent US7834019B2, “Substituted pyrazolo[3,4-d]pyrimidinone derivatives” (Banyu Pharmaceutical Co., Ltd., priority 2006, dated 2010).

Each structure is given as a SMILES string.

The experiment concerns Cdc2 (Cdk1) tyrosine 15-phosphorylation. The experiment can be described thus: Cdc2 (Cdk1) tyrosine 15-phosphorylation-inhibitory effect in WiDr cells + gemcitabine (ELISA). The class given is cell-based. Particulars: Homo sapiens, gemcitabine 100 nM for 24 hours, then test compound with nocodazole for 8 hours, read-out: Cdc2-Y15 Phosphorylation-Inhibitory Effect (WiDr, + gemcitabine) (EC50). The source says: Pharmaceutical Text 2 (Method of Determining Drug Potency in Cells (Cdc2 (Cdk1) Tyrosine 15-Phosphorylation-Inhibitory Effect))
Fetal bovine serum (FBS) was obtained from Morgate; media RPMI1640 and DMEM were from Invitrogen; camptothecin was from Sigma; gemcitabine was from Nippon Eli Lilly; nocodazole and protease inhibitor cocktail were from Sigma; rabbit anti-Cdc2 antibody and mouse anti-Cdc2 antibody were from Santa Cruz Biotechnology; rabbit anti-tyrosine 15-phosphorylated Cdc2 antibody and horseradish peroxidase-labeled anti-mouse IgG antibody were from Cell Signaling Technology; sure blue reserve TMB peroxidase substrate was from Kirkegaard and Perry Laboratories. […]
In the method of using WiDr cells, the cells were suspended in DMEM containing 10% FBS, and the cell suspension was applied to a 96-well Nunclondelta-processed plastic plate in an amount of 2000 cells/100 μL/well, in which the cells were incubated overnight in 5% CO2-95% air at 37° C. […] Cdc2 was determined through ELISA as follows: A rabbit anti-Cdc2 antibody solution, which had been diluted 200-fold with 50 mM carbonate-bicarbonate buffer (pH 9.6), was applied to a 96-well maxisorp plastic plate in an amount of 50 μL/well, and statically kept overnight at 4° C. so as to fix the antibody on the plate. […]

For `C=CCn1c(=O)c2cnc(Nc3ccc(N4CCN(C)CC4)cc3)nc2n1-c1cccc(C(C)(C)O)n1` [Example 53, 2-allyl-1-[6-(1-hydroxy-1-methylethyl)pyridin-2-yl]-6-{[4-(4-methylpiperazin-1-yl)phenyl]amino}-1,2-dihydro-3H-pyrazolo[3,4-d]pyrimidin-3-one], the EC50 worked out at 119 nM.
